Results: US20180303798A1 (Ares Trading S.A., priority 2012, published 2018)

Columns and labels:
HEC-1-A cell line [1] = test: Antioxidant activity assay (ROS by FACS); format: cell-based, human
Procedure: They were used in different concentrations (i.e. 40 nM, 80 nM, 170 nM and 340 nM, corresponding respectively to 9.4×10^−9 g/ml, 18×10^−9 g/ml, 40×10^−9 g/ml and 80×10^−9 g/ml).
(§1) HEC-1A cells were obtained by ATCC and culture following instructions of the provider.
(§2) HEC-1-A is an epithelial stabilized cell line isolated by H. Kuramoto from adenocarcinoma patient (21), which provide a valuable model to study endometrial epithelial cell in vitro (22).
Reactive Oxidative Substances (ROS) were measured by FACS as previously described by Italiano et al. (23) in two independent replicates.

HEC-1-A cell line [2] = test: Apoptosis assay (Propidium Iodide staining and FACS, sub-G1 events); format: cell-based, human; conditions: 24 hours
Procedure: as §1, §2
The apoptosis (% cell death) of the endometrial cells is a physiological phenomenon generally observed at 10-20% rate during cell culture.
Apoptosis levels were assayed by Propidium Iodide staining and FACS analysis. Percentage of sub-G1 events is shown for one of two experiments performed.

[3] = system: patients subjected to assisted fertilization; test: Clinical study 1: multi-centre study, endometrial irrigation with melatonin in culture medium at oocyte retrieval; format: in vivo, human
Excerpt: (§3) Said culture medium is normally used to improve cleavage, differentiation and expansion in vitro of blastocyst. The medium contains D-glucose, all the 20 essential L-amino acids, L-taurine, Gentamicin, human serum albumin, calcium lactate, calcium pantothenate; sodium chloride, sodium bicarbonate and sodium pyruvate; potassium chloride, potassium phosphate; magnesium chloride, magnesium sulfate; purified water. Further characteristics of the culture medium: • pH: 7.5-7.8 (use of bicarbonate buffer) • Osmolarity: 280-290 mOsm/kg • Endotoxins: <0.4 EU/ml • MEA: ≥80% • 2) physiological solution (Clinical Trial 2)
In the logistic regression, OR corresponds to the antilogarithm on a natural basis of the regression coefficient β associated with each covariate in the regression model.
The value thus calculated expresses therefore the advantage obtained through each procedure, irrespective of the other conditions.
The two-tailed confidence intervals at 95% (IF95%) of the OR have been calculated through the formula of […]
For the latter, the CI (confidence interval or trust interval) has been calculated through statistical analysis (IMPRUN. TXT) of linear regression with more variables of 95%.

Ishikawa cells = conditions: effect produced through MT2 receptors; reference (7); cited from earlier work
endometrial tissue = test: In vitro culture of endometrium with melatonin, visualization of pinopodes by electron microscopy (SEM); format: cell-based, human; conditions: co-culture from 3 to 5 days of endometrial tissue with permanent addition of melatonin
Procedure: The melatonin and the culture medium used are the same as those used for the in vivo study.
It has been used a field emission at high resolution electron microscope, FE HITACHI S 4000 model, operating at […].
Soon after retrieval from the patient, small pieces of endometrial tissue of about 1 mm in size have been placed in a fixing solution composed of paraformaldehyde 1% and glutaraldehyde 0.5% in buffer cacodylate 0.1 M pH 7.2 for 3 hours.
After this fixing the pieces are washed in PBS 20 min×3 times (1 hour total) and then the post fixing is carried out in a solution of osmium tetroxide 2% and potassium ferrocyanide 2.5%.
The preparation is kept in the dark for 3 hours to be then accurately washed rotating in PBS, with 4 replacements of 20 min each.
It follows dehydration of the samples of tissue with acetone in ascending succession with 3 replacements in 1 hour for each gradation 50%-70%-80%-90%-95% and 2 replacements with pure acetone. […]
The samples are fixed through a special electrically conductive double sided adhesive and for their arrangement two very thin needles are used and the preparation is ready to be observed with scanning electron microscope (SEM). […]

[4] = system: patients subjected to assisted reproduction; test: Clinical study 2: single centre study, endometrial washing with melatonin in sterile physiological solution; format: in vivo, human
Excerpt: as §3
Restricted criteria of inclusion have been used for selecting the patient population involved in the studies: • 3) age ≥20 and <44 years • 4) body mass index (BMI) ≥20 and ≤28 kg/m^2 • 5) Basal FSH≤19 UI/l • 6) Male and female factors
The second clinical study with a single prospective centre involved 64 patients in the group of control and 92 patients in the group of study.
In the case of the physiological solution, the catheter can be pre-filled with physiological solution supplemented with melatonin.
The catheter has been introduced in the internal uterine orifice with the same steps through which the operator carries out the conventional embryo-transfer (ET).
The single centre study involved 64 patients in the group of control and 92 patients in the group of study.
The primary endpoint of the study is the rate of clinical pregnancies (fetal heart) due to embryonic transfer (ET); the secondary endpoint is the rate of ongoing pregnancies and aborts.

[5] = 170 nM (40 ng/ml) compound, H2O2 200 mcg/ml
[6] = number of patients out of 92 ET

COc1cc2c(CCNC(C)=O)c[nH]c2cc1O [6-hydroxy-melatonin, 6-hydroxymelatonin]
protection of cell line from oxidation (ROS, FACS) (HEC-1-A cell line [1]; [5]): does not | anti-oxidative effect (ROS, FACS) (HEC-1-A cell line [1]; dose increased up to 340 nM, H2O2 200 mcg/ml, data not shown): anti-oxidative effect of this analogue is reached | effect on apoptosis (% cell death, sub-G1) (HEC-1-A cell line [2]; up to concentration of 170 nM): no effect on apoptosis

COc1ccc2cccc(CCNC(C)=O)c2c1 [agomelatine]
protection of cell line from oxidation (ROS, FACS) (HEC-1-A cell line [1]; [5]): continued to protect cell line from oxidation | effect on apoptosis (% cell death, sub-G1) (HEC-1-A cell line [2]; at 170 and 340 nM): protective effect

COc1ccc2[nH]cc(CCNC(C)=O)c2c1 [melatonin, N-acetyl-5-methoxytryptamine]
number of pregnancies with respect to the other two groups ([3]; irrigation or washing with melatonin vs physiological solution and no irrigation): double the number of pregnancies | result of endometrial irrigation at lower concentration ([3]; preceding studies with one third and the half of the final concentration 10×10^−9 g/ml, not shown data): without giving the same results | proliferation of atypical endometrial cells (Ishikawa) (Ishikawa cells): inhibits proliferation | pinopodes (SEM) with respect to the culture of control (endometrial tissue): unquestionable increase of pinopodes | anti-oxidative effect (ROS, FACS) (HEC-1-A cell line [1]; 170 nM (40 ng/ml) compound, H2O2 20 mcg/ml): same anti-oxidative effect | protection of cell line from oxidation (ROS, FACS) (HEC-1-A cell line [1]; [5]): continued to protect cell line from oxidation | rate of clinical pregnancies and ongoing pregnancies vs the group of control ([4]; endometrial washing with solutions containing melatonin, infertile female population): double | Aborts ([4]; group of study): 11.8% | BHCG Positive (on total of ET) ([4]; group of study, 92 ET): 44.6% | rate of ongoing pregnancies (Ongoing Pregnancy/ET) ([4]; group of study, 92 ET): 32.6% | rate of clinical pregnancies (Clinical Pregnancy/ET) ([4]; group of study, 92 ET, melatonin 10×10^−9 g/ml in physiological solution): 37% | BHCG Positive (on total of ET), No [4, 6]: 41 | Clinical Pregnancy/ET, No [4, 6]: 34 | Ongoing Pregnancy/ET, No [4, 6]: 30 | Aborts, No ([4]; number of patients, group of study): 4 | effect on apoptosis (% cell death, sub-G1) (HEC-1-A cell line [2]; all the concentrations tested (80, 170, 340 nM)): protective effect on apoptosis
